Reference: paper PMC3516572, “MiniCD4 Microbicide Prevents HIV Infection of Human Mucosal Explants and Vaginal Transmission of SHIV162P3 in Cynomolgus Macaques” (PLoS Pathogens, 2012)

How the values were obtained:
PM-1 T cells = experiment: MTT viability assay on PM-1 T cells; format: cell-based; details: 24 h at 37°C, then MTT 2 h; M48U1 ten-fold dilutions, highest concentrations tested; nonoxynol-9 at 500 ng/mL; two independent experiments in triplicates
Experimental: (§1) Penile tissues and PM-1 T cells were incubated in complete RPMI medium supplemented with ten-fold dilutions of M48U1 for 24 h at 37°C. Nonoxynol-9 microbicide (tested at 500 ng/mL) was employed as cytotoxic reference. The compounds were removed and the tissue explants and cells were incubated for 2 h in medium containing 500 µg/mL of 3-(4,5-dimethylthiazol-2-yl)-2,5-diphenyltetrazolium bromide (MTT). For tissue, after releasing the formazan in ethanol overnight, cytotoxicity was determined by measuring the optical density of the purple formazan product at 570–690 nm using Synergy HT multi-detection microplate reader. For PM-1 cells, the absorption of the formazan product was determined after lysis of the cells.

penile tissue explants = experiment: MTT viability assay on penile tissue explants; format: cell-based, human; details: 24 h at 37°C, then MTT 2 h; M48U1 ten-fold dilutions, highest concentrations tested; nonoxynol-9 at 500 ng/mL; two independent experiments in triplicates
From the text: Cervical tissue was obtained from patients undergoing planned therapeutic hysterectomy at St. George's Hospital in London, United Kingdom. Surgically resected specimens of colorectal tissue were collected at St. George's Hospital, London, United Kingdom. Penile tissue (glans) was obtained from individuals undergoing gender reassignment surgery at Charing Cross Hospital. All tissues were collected after signed informed consent was received from all patients and under protocols approved by the Local Research Ethics Committee (National Research Ethic Service NHS). On arrival in the laboratory, resected tissue was cut into 2–3 mm^3 explants comprising both epithelial and stromal tissue or muscularis mucosae, depending on the tissue, as described previously, [22].
as §1, with “The compounds were removed and the tissue explants and cells were incubated for 2 h in medium containing 500 µg/mL of 3-(4,5-dimethylthiazol-2-yl)-2,5-diphenyltetrazolium bromide (MTT).” left out

SHIV162P3 = details: cited from earlier work
From the text: The use of effective therapeutic drugs, such as tenofovir and more recently dapivirine tested in phase III trial, targeting post-entry events in the viral replication cycle (reverse transcription, integration and viral maturation) remains attractive, however the impact of their dual use in prevention and therapy on the potential induction of resistance evolution remains controversial. In contrast drugs that target the initial steps of viral attachment to CD4 and one of two co-receptors (CCR5 or CXCR4) triggering viral fusion with susceptible targets cells (entry inhibitors) are not widel ...

Compound	Cytotoxicity (MTT) in PM-1 T-cell line (PM-1 T cells)	Cytotoxicity (MTT) in penile tissue (penile tissue explants)	Protection of NHP from vaginal challenge with SHIV162P3 (SHIV162P3)
CCCCCCCCCc1ccc(OCCOCCOCCOCCOCCOCCOCCOCCOCCO)cc1 [nonoxynol-9]	significant toxicity	significant toxicity	–
COc1ccnc2[nH]cc(C(=O)C(=O)N3CCN(C(=O)c4ccccc4)C[C@H]3C)c12 [BMS-378806]	–	–	could protect NHP
